Data published in patent US20250313533A1, “QUINOLINE CARBOXYLIC ACID ESTER COMPOUND AND PREPARATION METHOD AND USE THEREOF” (priority 2019, published 2025).

Experiments:
[1] = tested on: black shank in potatoes; experiment: Living crops in vivo protective activity, potatoes (root irrigation); details: Solanum tuberosum, read-out: efficacy against black shank in potatoes; for pest or weed control at 5 ppm: dosage 5 ppm; for pest or weed control at 10 ppm: dosage 10 ppm
Protocol: Root irrigation was carried out on the potatoes for tests according to the designed concentration of the agents. The dosage for each plant was 200 mL and was kept consistent (also for the control). The black shank bacteria were inoculated on the second day after the application. The results were investigated according to the disease condition.

[2] = tested on: soft rot in Chinese cabbages; experiment: whole plant or invertebrate; details: 48 h, read-out: efficacy against soft rot in Chinese cabbages
[3] = tested on: indoor potted cucumber seedlings; experiment: Effect of improving growth and development of crops; assay type: in vivo; design: Rate of growth rate increase (%): concentration or dose not given beside the values; details: versus blank control; for Rate of chlorophyll content increase (%) / Rate of leaf area increase (%): 14 days after application; for Rate of growth rate increase (%): plant height 14 days after application; for Rate of leaf area increase (%): second leaf
Summary of the method: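 SPAD chlorophyll, plant height and second-leaf dimensions measured at application and 14 d later; leaf area from length (base to tip) and width (upper shoulder).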

[4] = tested on: bacterial blight in rice; experiment: whole plant or invertebrate; details: Oryza sativa, read-out: efficacy against bacterial blight in rice
[5] = tested on: pathogenic bacteria causing black rot in Chinese cabbages; experiment: In vitro bactericidal activity, black rot in Chinese cabbages; assay type: cell-based, xanthomonas; details: Xanthomonas, read-out: inhibitory rate; for inhibition at 1 ppm: dosage 1 ppm; for inhibition at 5 ppm: dosage 5 ppm
[6] = tested on: pathogenic bacteria causing fruit blotch in watermelons; experiment: In vitro bactericidal activity, fruit blotch in watermelons; assay type: cell-based, acidovorax; details: read-out: inhibitory rate; for inhibition at 1 ppm: dosage 1 ppm; for inhibition at 5 ppm: dosage 5 ppm
[7] = tested on: pathogenic bacteria causing black shank in potatoes; experiment: In vitro bactericidal activity, black shank in potatoes; assay type: cell-based; details: read-out: inhibitory rate; for inhibition at 1 ppm: dosage 1 ppm; for inhibition at 5 ppm: dosage 5 ppm
[8] = tested on: pathogenic bacteria causing fire blight in pears; experiment: In vitro bactericidal activity, fire blight in pears; assay type: cell-based, erwinia; details: Erwinia, read-out: inhibitory rate; for inhibition at 1 ppm: dosage 1 ppm; for inhibition at 5 ppm: dosage 5 ppm
[9] = tested on: cucumber seedlings; experiment: Safety for plant growth after application; assay type: in vivo; details: dosage 200 ppm
Summary of the method: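 Read-outs are chlorophyll content, leaf area and the rate of increase in plant height, all measured on cucumber seedlings kept in pots indoors after application.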

[10] = tested on: bacterial wilt in tobacco; experiment: whole plant or invertebrate; details: Nicotiana tabacum, read-out: efficacy against bacterial wilt in tobacco
[11] = tested on: pathogenic bacteria causing bacterial wilt in cassava; experiment: organism not typed; assay type: cell-based; details: read-out: inhibitory rate
[12] = tested on: pathogenic bacteria causing bacterial wilt in tobacco; experiment: whole plant or invertebrate; assay type: cell-based, ralstonia; details: read-out: inhibitory rate
[13] = tested on: pathogenic bacteria causing stem rot in sweet potatoes; experiment: In vitro bactericidal activity, stem rot in sweet potatoes; assay type: cell-based, dikia; details: read-out: inhibitory rate; for inhibition at 1 ppm: dosage 1 ppm; for inhibition at 5 ppm: dosage 5 ppm
[14] = tested on: fruit blotch in watermelons; experiment: whole plant or invertebrate; details: read-out: efficacy against fruit blotch in watermelons
[15] = tested on: stem rot in sweet potatoes; experiment: whole plant or invertebrate; details: read-out: efficacy against stem rot in sweet potatoes
[16] = tested on: pathogenic bacteria causing bacterial angular leaf spot in cucumbers; experiment: In vitro bactericidal activity, bacterial angular leaf spot in cucumbers; assay type: cell-based, pseudomonas; details: read-out: inhibitory rate; for inhibition at 1 ppm: dosage 1 ppm; for inhibition at 5 ppm: dosage 5 ppm
[17] = tested on: pathogenic bacteria causing bacterial blight in rice; experiment: whole plant or invertebrate; assay type: cell-based, xanthomonas; details: read-out: inhibitory rate

COCCOC(=O)c1cn(C2CC2)c2cc(OC3CCCC3)c(F)cc2c1=O [Compound 296]
11%: Rate of leaf area increase (%) [3]
12%: Rate of growth rate increase (%) [3]
≥ 90%: pest or weed control at 5 ppm [1] | pest or weed control at 10 ppm [1] | pest or weed control at 5 ppm [2] | pest or weed control at 10 ppm [2] | pest or weed control at 5 ppm [4] | pest or weed control at 10 ppm [4] | inhibition at 1 ppm [5] | inhibition at 5 ppm [5] | inhibition at 1 ppm [6] | inhibition at 5 ppm [6] | inhibition at 1 ppm [7] | inhibition at 5 ppm [7] | inhibition at 1 ppm [8] | inhibition at 5 ppm [8] | pest or weed control at 5 ppm [10] | pest or weed control at 10 ppm [10] | inhibition at 1 ppm [11] | inhibition at 5 ppm [11] | inhibition at 1 ppm [12] | inhibition at 5 ppm [12] | inhibition at 1 ppm [13] | inhibition at 5 ppm [13] | pest or weed control at 5 ppm [14] | pest or weed control at 10 ppm [14] | pest or weed control at 5 ppm [15] | pest or weed control at 10 ppm [15] | inhibition at 1 ppm [16] | inhibition at 5 ppm [16] | inhibition at 1 ppm [17] | inhibition at 5 ppm [17]
16%: Rate of chlorophyll content increase (%) [3]
safe for plant growth: safety for plant growth (discoloration, necrosis, wilt, malformation) [9]

COCCCCOC(=O)c1cn(C2CC2)c2cc(Cl)c(F)cc2c1=O [Compound 178]
≥ 90%: pest or weed control at 10 ppm [1] | pest or weed control at 5 ppm [2] | pest or weed control at 10 ppm [2] | pest or weed control at 5 ppm [4] | pest or weed control at 10 ppm [4] | inhibition at 1 ppm [5] | inhibition at 5 ppm [5] | inhibition at 1 ppm [6] | inhibition at 5 ppm [6] | inhibition at 5 ppm [7] | inhibition at 1 ppm [8] | inhibition at 5 ppm [8] | pest or weed control at 5 ppm [10] | pest or weed control at 10 ppm [10] | inhibition at 1 ppm [11] | inhibition at 5 ppm [11] | inhibition at 1 ppm [12] | inhibition at 5 ppm [12] | inhibition at 1 ppm [13] | inhibition at 5 ppm [13] | pest or weed control at 5 ppm [14] | pest or weed control at 10 ppm [14] | pest or weed control at 5 ppm [15] | pest or weed control at 10 ppm [15] | inhibition at 1 ppm [16] | inhibition at 5 ppm [16] | inhibition at 1 ppm [17] | inhibition at 5 ppm [17]
safe for plant growth: safety for plant growth (discoloration, necrosis, wilt, malformation) [9]
9%: Rate of growth rate increase (%) [3] | Rate of leaf area increase (%) [3]
≥ 80%: pest or weed control at 5 ppm [1] | inhibition at 1 ppm [7]
15%: Rate of chlorophyll content increase (%) [3]

COCCOC(=O)c1cn(C2CC2)c2cc(OCC(F)(F)F)ccc2c1=O [Compound 364]
≥ 80%: pest or weed control at 5 ppm [1] | pest or weed control at 5 ppm [2] | pest or weed control at 5 ppm [4] | inhibition at 1 ppm [5] | inhibition at 1 ppm [6] | inhibition at 1 ppm [7] | inhibition at 1 ppm [8] | inhibition at 1 ppm [11] | inhibition at 1 ppm [12] | inhibition at 1 ppm [13] | inhibition at 1 ppm [16] | inhibition at 1 ppm [17]
≥ 90%: pest or weed control at 10 ppm [1] | pest or weed control at 10 ppm [2] | pest or weed control at 10 ppm [4] | inhibition at 5 ppm [5] | inhibition at 5 ppm [6] | inhibition at 5 ppm [7] | inhibition at 5 ppm [8] | pest or weed control at 5 ppm [10] | pest or weed control at 10 ppm [10] | inhibition at 5 ppm [11] | inhibition at 5 ppm [12] | inhibition at 5 ppm [13] | pest or weed control at 5 ppm [14] | pest or weed control at 10 ppm [14] | pest or weed control at 5 ppm [15] | pest or weed control at 10 ppm [15] | inhibition at 5 ppm [16] | inhibition at 5 ppm [17]
9%: Rate of leaf area increase (%) [3]
12%: Rate of chlorophyll content increase (%) [3]
safe for plant growth: safety for plant growth (discoloration, necrosis, wilt, malformation) [9]
7%: Rate of growth rate increase (%) [3]

COCOC(=O)c1cn(C2CC2)c2cc(Cl)c(F)cc2c1=O [Compound 143]
8%: Rate of growth rate increase (%) [3]
safe for plant growth: safety for plant growth (discoloration, necrosis, wilt, malformation) [9]
11%: Rate of chlorophyll content increase (%) [3]
≥ 80%: pest or weed control at 5 ppm [1] | pest or weed control at 5 ppm [2] | pest or weed control at 5 ppm [4] | inhibition at 1 ppm [5] | inhibition at 1 ppm [6] | inhibition at 1 ppm [7] | inhibition at 1 ppm [8] | inhibition at 1 ppm [11] | inhibition at 1 ppm [12] | inhibition at 1 ppm [13] | inhibition at 1 ppm [16] | inhibition at 1 ppm [17]
≥ 90%: pest or weed control at 10 ppm [1] | pest or weed control at 10 ppm [2] | pest or weed control at 10 ppm [4] | inhibition at 5 ppm [5] | inhibition at 5 ppm [6] | inhibition at 5 ppm [7] | inhibition at 5 ppm [8] | pest or weed control at 5 ppm [10] | pest or weed control at 10 ppm [10] | inhibition at 5 ppm [11] | inhibition at 5 ppm [12] | inhibition at 5 ppm [13] | pest or weed control at 5 ppm [14] | pest or weed control at 10 ppm [14] | pest or weed control at 5 ppm [15] | pest or weed control at 10 ppm [15] | inhibition at 5 ppm [16] | inhibition at 5 ppm [17]
15%: Rate of leaf area increase (%) [3]
